In US11827628B2, “Compositions and methods for inhibition of the JAK pathway” (Rigel Pharmaceuticals, Inc., priority 2005, dated 2023) one finds IC50 data, which are given here for 29 molecules.

Read-outs that look alike come from different tables or passages of the source.

A word on the IC50: it is the concentration that inhibits the measured activity by half.

The test system of assay [1] is IL-4 stimulated expression of CD23 in human Ramos B cells (JAK-1 and JAK-3). The assay is described as follows: Assay for Ramos B-Cell Line Stimulated with IL-4 (CD23 upregulation, FACS). The class given is cell-based. The conditions noted are these: Ramos B cells stimulated with IL-4, CD23 expression by FACS, read-out: IC50, Example 41. The method, boiled down: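 Log-phase Ramos cells, 1 h compound pre-incubation at 37 °C; IL-4 50 units/mL final, 20-24 h; CD23-PE stain, FACS; IC50.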
In general terms: Flow cytometry measures light scatter and fluorescence of single cells or particles in a stream.

Assay [2] deals with Primary human T-cells. The assay can be described thus: Primary Human T-Cell Proliferation Assay Stimulated with IL-2 (CellTiter-Glo). Type of assay: cell-based. As to conditions: primary human T-cells stimulated with IL-2, proliferation, read-out: IC50, Example 42. The method, boiled down: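 IC50 derived from CellTiter-Glo ATP signal after 72 hours of IL-2-driven proliferation at 37° C. Cells: primary human T-cells from blood, stimulated beforehand 3-4 days on anti-CD3/anti-CD28 with IL-2, then rested from IL-2 before compound exposure in duplicate; IL-2-free wells served as unstimulated control.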
A general note: Cellular ATP, detected with luciferase, serves as a proxy for viable cell number.

`CN1CCN(C(=O)c2ccc(Nc3nc(Nc4cccc(S(N)(=O)=O)c4)ncc3F)cc2)CC1` [IX-28, N2-(3-Aminosulfonylphenyl)-5-fluoro-N4-[4-(4-methylpiperazin-1-ylcarbonyl)phenyl]-2,4-pyrimidinediamine]: the IC50 in assay [1] (Homo sapiens, Ramos) is 1660 nM; in assay [2] (Homo sapiens, T-cell), 10100 nM.
As for `Cc1ccc(Nc2ncc(F)c(Nc3ccc(C(=O)N4CCN(S(C)(=O)=O)CC4)cc3)n2)cc1S(N)(=O)=O` [IX-30, N2-(3-Aminosulfonyl-4-methylphenyl)-5-fluoro-N4-[4-(1-methanesulfonyl-4-piperizinyl)carbonylphenyl]-2,4-pyrimidinediamine], the figures for the IC50 in assay [1] and in assay [2] were 1940 nM and 6800 nM, respectively.
Turning to `COC(=O)c1ccc(Nc2nc(Nc3ccc(C)c(S(N)(=O)=O)c3)ncc2F)s1` [IX-46, N2-(3-Aminosulfonyl-4-methylphenyl)-5-fluoro-N4-(5-methoxycarbonyl-thiophene-2-yl)-2,4-pyrimidinediamine], the concentration for half-maximal inhibition (IC50) in assay [1] (Homo sapiens, Ramos) came to 73.9 nM; in assay [2] (Homo sapiens, T-cell), 1390 nM.
Take `COC(=O)c1ccc(Nc2nc(Nc3cccc(S(N)(=O)=O)c3)ncc2F)s1` [IX-47, N2-(3-Aminosulfonylphenyl)-5-fluoro-N4-(5-methoxycarbonyl-thiophene-2-yl)-2,4-pyrimidinediamine]: the IC50 is 223 nM in assay [1] (Homo sapiens, Ramos) and 2390 nM in assay [2] (Homo sapiens, T-cell).
For `COC(=O)c1ccc(Nc2nc(Nc3ccc(S(N)(=O)=O)cc3)ncc2F)s1` [IX-49, N2-(4-Aminosulfonylphenyl)-5-fluoro-N4-(5-methoxycarbonyl-thiophene-2-yl)-2,4-pyrimidinediamine], in that order: 96.5 nM and 61900 nM.
Consider `CNS(=O)(=O)c1cc(Nc2ncc(F)c(Nc3ccc(-c4ccccn4)c(OCCl)c3)n2)ccc1C` [IX-54, 5-Fluoro-N2-[3-N-(methyl)aminosulfonyl-4-methylphenyl]-N4-[4-(2-pyridinyl)-3-chloromethyleneoxyphenyl]-2,4-pyrimidinediamine], for which the values for the IC50 in assay [1] and in assay [2] were 174 nM and 2470 nM, respectively.
For the molecule `COc1ccc(Nc2nc(Nc3ccc(Cl)c(S(N)(=O)=O)c3)ncc2F)cc1Cl` [VI-2, N2-(3-Aminosulfonyl-4-chlorophenyl)-N4-(3-chloro-4-methoxyphenyl)-5-fluoro-2,4-pyrimidinediamine], the IC50 in assay [1] (Homo sapiens, Ramos) was found to be 89.2 nM; in assay [2] (Homo sapiens, T-cell) it was 3570 nM.
On to `NS(=O)(=O)c1cc(Nc2ncc(F)c(Nc3ccc(Cl)c(Cl)c3)n2)ccc1Cl` [VI-3, N2-(3-Aminosulfonyl-4-chlorophenyl)-N4-(3,4-dichlorophenyl)-5-fluoro-2,4-pyrimidinediamine], for which the half-maximal inhibitory concentration (IC50) worked out at 206 nM in assay [1] (Homo sapiens, Ramos) and 8790 nM in assay [2] (Homo sapiens, T-cell).
On the same counts, the results for `COc1ccc(Nc2nc(Nc3ccc(C)c(S(N)(=O)=O)c3)ncc2F)cc1Cl` [VI-4, N2-(3-Aminosulfonyl-4-methylphenyl)-N4-(3-chloro-4-methoxyphenyl)-5-fluoro-2,4-pyrimidinediamine] are 21.1 nM and 231 nM.
For `COc1ccc(Nc2nc(Nc3ccc(Cl)c(S(=O)(=O)NC(C)=O)c3)ncc2F)cc1Cl` [VI-12, N2-[3-(N-Acetyl)aminosulfonyl-4-chlorophenyl]-N4-(3-chloro-4-methoxyphenyl)-5-fluoro-2,4-pyrimidinediamine], in that order: 146 nM and 1310 nM.
For the molecule `Cc1cc(Nc2ncc(F)c(Nc3ccc(OC(F)(F)F)c(Cl)c3)n2)cc(S(N)(=O)=O)c1F` [VI-16, N2-(3-Aminosulfonyl-4-fluoro-5-methylphenyl)-N4-(3-chloro-4-trifluoromethoxyphenyl)-5-fluoro-2,4-pyrimidinediamine], the half-inhibitory concentration (IC50) was determined as 259 nM in assay [1] (Homo sapiens, Ramos) and 3910 nM in assay [2] (Homo sapiens, T-cell).
For `COc1ccc(Nc2nc(Nc3ccc(OC)c(S(N)(=O)=O)c3)ncc2F)cc1Cl` [VI-29, N2-(3-Aminosulfonyl-4-methoxyphenyl)-N4-(3-chloro-4-methoxyphenyl)-5-fluoro-2,4-pyrimidinediamine], in that order: 49.8 nM and 362 nM.
For `COc1ccc(Nc2nc(Nc3cc(C)c(OC)c(S(N)(=O)=O)c3)ncc2F)cc1Cl` [VI-30, N2-(3-Aminosulfonyl-4-methoxy-5-methylphenyl)-N4-(3-chloro-4-methoxyphenyl)-5-fluoro-2,4-pyrimidinediamine], the IC50 in assay [1] (Homo sapiens, Ramos) stood at 13.2 nM; in assay [2] (Homo sapiens, T-cell) it was 170 nM.
Take `Cc1ccc(Nc2ncc(F)c(Nc3ccc(OC(F)(F)F)cc3)n2)cc1S(N)(=O)=O` [VI-32, N2-(3-aminosulfonyl-4-methylphenyl)-5-fluoro-N4-(4-trofluoromethoxyphenyl)-2,4-pyrimidinediamine]: the 50% inhibitory concentration (IC50) in assay [1] turned out to be 333 nM; in assay [2], 1660 nM.
For `NS(=O)(=O)c1cccc(Nc2ncc(F)c(Nc3ccc(OC(F)(F)F)cc3)n2)c1` [VI-33, N2-(3-aminosulfonylphenyl)-5-fluoro-N4-(4-trofluoromethoxyphenyl)-2,4-pyrimidinediamine], in that order: 272 nM and 660 nM.
Regarding `CC(C)(C)c1ccc(Nc2nc(Nc3cccc(S(N)(=O)=O)c3)ncc2F)cc1` [VI-35, N2-(3-Aminosulfonylphenyl)-N4-(4-tert-butylphenyl)-5-fluoro-2,4-pyrimidinediamine], the half-inhibitory concentration (IC50) in assay [1] (Homo sapiens, Ramos) came to 158 nM; in assay [2] (Homo sapiens, T-cell), 1260 nM.
As for `Cc1ccc(Nc2ncc(F)c(Nc3ccc(C(C)(C)C)cc3)n2)cc1S(N)(=O)=O` [VI-36, N2-(3-Aminosulfonyl-4-methylphenyl)-N4-(4-tert-butylphenyl)-5-fluoro-2,4-pyrimidinediamine], the IC50 in assay [1] (Homo sapiens, Ramos) is 374 nM; in assay [2] (Homo sapiens, T-cell) it was 4500 nM.
On the same counts, the results for `Cc1ccc(Nc2ncc(F)c(Nc3ccc(Cl)c(C(F)(F)F)c3)n2)cc1S(N)(=O)=O` [VI-39, N2-(3-Aminosulfonyl-4-methyl-phenyl)-N4-(4-chloro-3-trifluoromethylphenyl)-5-fluoro-2,4-pyrimidinediamine] are 401 nM and 3140 nM.
With `NS(=O)(=O)c1cc(Nc2ncc(F)c(Nc3ccc(C(F)(F)F)cc3)n2)ccc1Cl` [VI-41, N2-(3-Aminosulfonyl-4-chlorophenyl)-5-fluoro-N4-(4-trifluorophenyl)-2,4-pyrimidinediamine], the IC50 amounted to 342 nM in assay [1] and 6240 nM in assay [2].
Regarding `NS(=O)(=O)c1cc(Nc2ncc(F)c(Nc3ccc(OC(F)(F)F)cc3)n2)ccc1Cl` [VI-42, N2-(3-Aminosulfonyl-4-chlorophenyl)-5-fluoro-N4-(4-trifluoromethoxyphenyl)-2,4-pyrimidinediamine], the IC50 in assay [1] (Homo sapiens, Ramos) was found to be 452 nM; in assay [2] (Homo sapiens, T-cell), 6170 nM.
On the same counts, the results for `CC(C)(C)c1ccc(Nc2nc(Nc3ccc(Cl)c(S(N)(=O)=O)c3)ncc2F)cc1` [VI-43, N2-(3-Aminosulfonyl-4-chlorophenyl)-N4-(4-tert-butylphenyl)-5-fluoro-2,4-pyrimidinediamine] are 739 nM and 6140 nM.
`NS(=O)(=O)c1cc(Nc2ncc(F)c(Nc3ccc(C(F)(F)F)c(Cl)c3)n2)ccc1Cl` [VI-44, N2-(3-Aminosulfonyl-4-chlorophenyl)-N4-(3-chloro-4-trifluoromethyl-phenyl)-5-fluoro-2,4-pyrimidinediamine]: the IC50 in assay [1] (Homo sapiens, Ramos) stood at 429 nM; in assay [2] (Homo sapiens, T-cell), 7310 nM.
Turning to `Cc1ccc(Nc2ncc(F)c(Nc3ccc(OCC(F)(F)F)cc3)n2)cc1S(N)(=O)=O` [VI-46, N2-(3-Aminosulfonyl-4-methylphenyl)-5-fluoro-N4-(4-trifluoromethylmethyleneoxyphenyl)-2,4-pyrimidinediamine], the concentration for half-maximal inhibition (IC50) was 144 nM in assay [1] and 1260 nM in assay [2].
On the same counts, the results for `NS(=O)(=O)c1cc(Nc2ncc(F)c(Nc3ccc(OCC(F)(F)F)cc3)n2)ccc1Cl` [VI-48, N2-(3-Aminosulfonyl-4-chlorophenyl)-5-fluoro-N4-(4-trifluoromethylmethyleneoxyphenyl)-2,4-pyrimidinediamine] are 315 nM and 2240 nM.
Take `C#CCOc1cccc(Nc2nc(Nc3ccc(C)c(S(N)(=O)=O)c3)ncc2F)c1` [VI-57, N2-(3-Aminosulfonyl-4-methylphenyl)-5-fluoro-N4-[3-(prop-2-ynyloxy)phenyl]-2,4-pyrimidinediamine]: the IC50 in assay [1] (Homo sapiens, Ramos) is 202 nM; in assay [2] (Homo sapiens, T-cell), 1180 nM.
On to `C#CCOc1ccc(Nc2nc(Nc3ccc(C)c(S(N)(=O)=O)c3)ncc2F)cc1C` [VI-58, N2-(3-Aminosulfonyl-4-methylphenyl)-5-fluoro-N4-[3-methyl-4-(prop-2-ynyloxy)phenyl]-2,4-pyrimidinediamine], for which the IC50 is 164 nM in assay [1] (Homo sapiens, Ramos) and 724 nM in assay [2] (Homo sapiens, T-cell).
On the same counts, the results for `C#CCN(CC#C)c1ccc(Nc2nc(Nc3ccc(C)c(S(N)(=O)=O)c3)ncc2F)cc1` [VI-67, N2-(3-Aminosulfonyl-4-methylphenyl)-N4-{4-[bis(prop-2-ynyl)amino]phenyl}-5-fluoro-2,4-pyrimidinediamine] are 147 nM and 718 nM.
On the same counts, the results for `C#CCOC(=O)NCc1ccc(Nc2nc(Nc3ccc(C)c(S(N)(=O)=O)c3)ncc2F)cc1` [VI-73, N2-(3-Aminosulfonyl-4-methylphenyl)-5-fluoro-N4-{4-[(prop-2-ynyloxy)carbonylaminomethyl]phenyl}-2,4-pyrimidinediamine] are 251 nM and 2010 nM.
For `C#CCNS(=O)(=O)c1ccc(Nc2nc(Nc3cccc(S(N)(=O)=O)c3)ncc2F)cc1` [VI-75, N2-(3-Aminosulfonylphenyl)-5-fluoro-N4-[4-(prop-2-ynylaminosulfonyl)phenyl]-2,4-pyrimidinediamine], in that order: 904 nM and 929 nM.
